Measured values taken from patent publication US20130023491A1, “BETA-CELL REPLICATION PROMOTING COMPOUNDS AND METHODS OF THEIR USE” (President and Fellows of Harvard College, priority 2009, published 2013).

How the values were obtained:
mouse dermal fibroblasts = assay: Ki-67 proliferation of mouse dermal fibroblasts; type: cell-based; details: A10 0.019-10 uM
Experimental: Using a protocol similar to as described in Example 1, β-cells or mouse dermal fibroblasts were treated with 10 uM, 5 uM, 2.5 uM, 1.25 um, 0.625 uM, 0.3125 uM, 0.156 uM, 0.078 uM, 0.04 uM, or 0.019 uM of A10.

β-cells = assay: β-cell replication by phosphohistone-H3 (PH3) and PDX-1 co-expression; type: cell-based, rat; details: A10 2 μM, B8 15 μM
Experimental: Rat islets were isolated as previously described in Gotoh M, Maki T, Kiyoizumi T, Satomi S, Monaco A P: An improved method for isolation of mouse pancreatic islets. Transplantation 40:437-438, 1985, contents of which are herein incorporated by reference in their entirety. Isolated islets were cultured overnight in a tissue culture incubator. The following morning, islets were trypsinized into cellular clusters of 1-3 cells, re-suspended in islet media (Mediatech 99-786-CV; 10% FBS serum (Valley Biomedial BS3033); 8.3 mM Glucose (Sigma G7528); 1× Penicillin/Streptomycin (Invitrogen 15070-063); 1× Glutamax (Invitrogen 35050-079)) and plated into the wells of a 96-well plate (Sigma CLS3904) that had been coated with 804G (a rat bladder carcinoma cell line) conditioned media. The cellular plating density was 60 k cells/well and greater than 95% viability was confirmed at the time of plating. The islet cells were allowed 48-hours to adhere at which time the media was changed (Mediatech 99-786-CV 2% serum, 5 mM glucose, 1× pen/strep, 1× glutamax) and the cells were treated with the test compounds. For screening, compounds were tested at 1 uM concentration in duplicate. After 24-hours of compound treatment, cells were fixed with fresh 4% PFA (Electron Microscopy Services 15710) for 20 minutes and washed with PBS (VWR 45000-446). […]

Nc1ncnc2c1c(I)cn2[C@@H]1O[C@H](CO)[C@@H](O)[C@H]1O [A10, 5-iodotubercidin]
% Ki-67 positive mouse dermal fibroblasts (mouse dermal fibroblasts): did not change
ratio of PH3 over PDX-1 relative to control DMSO treatment (β-cells): increased
